Assay [1] relates to bone marrow derived osteoclastic cell system. The assay is described as follows: count of TRAP-positive multinucleated osteoclasts in primary osteoclastogenic monocyte culture. The conditions noted are these: osteoclastogenic monocyte culture with M-CSF and RANKL; FIG. 1g. Type of assay: cell-based, mouse. How it is done: (§1) Cell cultures and mRNA analysis—Osteoclastogenic cultures of monocytes derived from femora and tibiae of WT C57BL/6J mice were set as previously reported (Zou, W., et al., 2002. FASEB J. 16: 274-282). After separation and prior to RNA extraction or cell counts the cells were cultured for 5 days in medium containing M-CSF and RANKL (R&D Systems Inc. Minneapolis, Minn.). Primary bone marrow stromal cell cultures from femoral diaphyseal bone marrow and the MC3T3 E1 cells were cultured as reported previously (Frenkel, B., et al., 1997. Endocrinology 138: 2109-2116; Bab, I., et al., 1992. EMBO J. 11: 1867-1873). The cells were grown in osteogenic medium containing ascorbic acid, β-glycerophophate and dexamethasone (Frenkel, B., et al., 1997. Endocrinology 138: 2109-2116).
(§2) In the cell count experiments, ligands were dissolved in dimethylsulfoxide and further diluted to their final concentration using tissue culture medium. For osteoclast counts the cultures were fixed in ethanol and TRAP-stained. […] The cells were then serum starved for 2 hours followed by 48 hours incubation in (α-MEM supplemented with 4% BSA and ligand. Cells were separated using chondroitinase and trypsin (Krebsbach, P. H., et al., 1998. Transplantation 66, 1272-1278) and counted with a hemocytometer in triplicate wells per condition.

The next assay relates to OVX mice. As to the kind of experiment: ovariectomy (OVX)-induced femoral bone loss in sexually mature mice. The class given is in vivo, mouse. The conditions noted are these: C3H OVX mice, 10 mg/Kg/day subcutaneously for 4 weeks from time of operation; FIGS. 4a-g. How it is done:
Ovariectomy (OVX) mice—C3H mice (Harlan, Israel) were subjected to an ovariectomy procedure. HU-308 was synthesized as described before [Hanus, L., et al. HU-308: a specific agonist for CB(2), a peripheral cannabinoid receptor. Proc. Natl. Acad. Sci. U.S.A. 96: 14228-142-33 (1999)] and was daily injected once subcutaneously as an ethanol/emulphor/saline (1:1:18) solution.
All reported animals received calcein flurochrome (Sigma), 15 mg/Kg intraperitoneally four days and one day prior to sacrifice. […]
Micro-computed tomography (μCT)—Whole femora were examined by μCT 40 (Scanco Medical, Bassersdorf, Switzerland). […] Trabecular bone parameters were measured in a metaphyseal segment, extending proximally from the proximal tip of the primary spongiosa to the proximal border of the distal femoral quartile. Cortical bone parameters were determined in a diaphyseal segment extending 1.12 mm distally from the midpoint between the femoral ends.
Histomorphometry and immunohistochemistry—After μCT image acquisition, the specimens were embedded undecalcified in Technovit 9100 (Heracus Kulzer, Wehrheim, Germany). […] Parameters were determined according to a standardized nomenclature [Parfitt, A. M., et al. Bone histomorphometry: standardization of nomenclature, symbols, and units. […]

Assay [2] relates to diaphyseal bone marrow derived stromal cells. As to the kind of experiment: cell count of bone marrow derived stromal cells (preosteoblasts) challenged with ligand. The following applies: cells grown for 10 days in osteogenic medium; 48 hours incubation with ligand; FIG. 1f. Type of assay: cell-based, mouse. On the procedure:
as §1, §2

For assay [3], the system named is tissue non-specific alkaline phosphatase (TNSALP). As to the kind of experiment: TNSALP activity in the preosteoblastic stromal cell cultures. Type of assay: cell-based, mouse. The conditions noted are these: preosteoblastic stromal cell culture, early differentiation stage; data not shown. On the procedure: as §1, §2

With `CCCCCCC(C)(C)c1cc(OC)c([C@@H]2C=C(CO)[C@@H]3C[C@H]2C3(C)C)c(OC)c1` [HU-308], the “number of TRAP positive multinucleated cells” value in assay [1] was “marked dose dependent decrease”. Further, the “ovariectomy (OVX)-induced femoral bone loss” value with OVX mice is listed as “attenuating”. Besides, the “number of diaphyseal bone marrow derived stromal cells” value in assay [2] is “potent increase”. For the same compound, the “activity of the tissue non-specific alkaline phosphatase (TNSALP)” value in assay [3] is on record as “unaffected”.

As to `CCCCC/C=C\C/C=C\C/C=C\C/C=C\CCCCOC(CO)CO` [Noladin ether, 2-arachidonyl glyceryl ether], the “number of diaphyseal bone marrow derived stromal cells” value in assay [2] was “no significant effect”.
